ChEMBL document CHEMBL1201862, “PubChem BioAssay data set” (2004)
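Exposure lasted 48 hours, with cells grown in 96-well plates and compounds tested at five concentrations. The concentration for 50% growth inhibition is given as GI50.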 Calls of active or inactive are those of the source. Cut-off read from the data, not from the text of the source: active = GI50 up to about 1.1 µM and inactive = higher.

Columns and labels:
Experiment in all cases: NCI anticancer screen, dose series, 48 h
OVCAR-8 = system: OVCAR-8
MOLT-4 = system: MOLT-4
786-0 = system: 786-0
HCT-116 = system: HCT-116
A498 = system: A498
HOP-92 = system: HOP-92
OVCAR-4 = system: OVCAR-4
HT-29 = system: HT-29
HOP-62 = system: HOP-62
CCRF-CEM = system: CCRF-CEM
TK-10 = system: TK-10
SR = system: SR
SN12C = system: SN12C
SNB-19 = system: SNB-19
KM12 = system: KM12
U-251 = system: U-251
MDA-MB-435 = system: MDA-MB-435
MCF7 = system: MCF7
MDA-MB-231 = system: MDA-MB-231

Measured: GI50

c1ccc2c(c1)[nH]c1c[nH]c3c4cccnc4nc-3c12
inactive: OVCAR-8 17.1 µM | MOLT-4 24.4 µM | 786-0 17.1 µM | HCT-116 17.1 µM | A498 33.3 µM | HOP-92 28.2 µM | OVCAR-4 18.2 µM | HT-29 19.3 µM | HOP-62 29.9 µM | CCRF-CEM 24.7 µM | TK-10 12.7 µM | SR 17.7 µM | SN12C 18.6 µM | SNB-19 18.3 µM

O=c1cc(CO)oc2c3c(cc(O)c12)OCC(COC1OC(CO)C(O)C(O)C1O)=CC3 (configuration not stated)
inactive: OVCAR-8 > 100 µM | MOLT-4 > 100 µM | 786-0 > 100 µM | HCT-116 > 100 µM | A498 > 100 µM | KM12 > 100 µM | HOP-92 > 100 µM | OVCAR-4 > 100 µM | HT-29 > 100 µM | U-251 > 100 µM | HOP-62 > 100 µM | CCRF-CEM > 100 µM | TK-10 > 100 µM | SR > 100 µM | SN12C > 100 µM | SNB-19 > 100 µM

CN(/N=C/c1ccnc2ccccc12)c1ccc(Cl)cc1[N+](=O)[O-]
inactive: OVCAR-8 85.5 µM | MDA-MB-435 > 100 µM | MOLT-4 45.3 µM | 786-0 49.9 µM | HCT-116 > 100 µM | A498 > 100 µM | MCF7 83.9 µM | KM12 > 100 µM | MDA-MB-231 > 100 µM | HOP-92 25.8 µM | OVCAR-4 4.92 µM | HT-29 98.2 µM | U-251 > 100 µM | HOP-62 31.8 µM | CCRF-CEM 50 µM | TK-10 35.6 µM | SR 2.64 µM | SN12C > 100 µM | SNB-19 > 100 µM

Nc1ccccc1-n1c2c(c3ccccc3c1=O)C(=O)c1ccccc1-2
inactive: OVCAR-8 14.5 µM | MDA-MB-435 57.9 µM | MOLT-4 4.25 µM | 786-0 7.62 µM | HCT-116 20.8 µM | A498 54.5 µM | MCF7 13.3 µM | KM12 71.6 µM | MDA-MB-231 23.9 µM | HOP-92 16.6 µM | OVCAR-4 4.11 µM | HT-29 18.4 µM | U-251 15.2 µM | HOP-62 7.14 µM | CCRF-CEM 48.9 µM | TK-10 > 10 µM | SN12C 42 µM | SNB-19 5 µM

CCCOP1(=O)C=C(C)C(Cl)=C(C)C1 (configuration not stated)
inactive: OVCAR-8 27 µM | MOLT-4 17.6 µM | 786-0 16.9 µM | HCT-116 18 µM | KM12 19.1 µM | HOP-92 18.4 µM | OVCAR-4 26.9 µM | HT-29 22.1 µM | U-251 23.2 µM | HOP-62 42.4 µM | CCRF-CEM 15 µM | TK-10 23.1 µM | SR 17.9 µM | SN12C 20.2 µM | SNB-19 > 100 µM

C=C1C(=O)OC2/C=C(\C)C(OC(C)=O)C3OC3C(C)(O)CC(OC(=O)/C(C)=C/C)C12 (configuration not stated)
inactive: OVCAR-8 9.93 µM | MOLT-4 5.05 µM | 786-0 4.73 µM | HCT-116 2.16 µM | A498 15.8 µM | KM12 14.7 µM | HOP-92 5.52 µM | OVCAR-4 33.8 µM | HT-29 14.9 µM | U-251 12.1 µM | HOP-62 19.1 µM | CCRF-CEM 2.81 µM | TK-10 11.9 µM | SR 2.96 µM | SN12C 20 µM | SNB-19 18.7 µM

CC1(C)c2ccccc2N2C(c3ccccc3)=NOC21C (configuration not stated)
inactive: OVCAR-8 > 100 µM | MOLT-4 > 100 µM | 786-0 > 100 µM | HCT-116 > 100 µM | A498 > 100 µM | KM12 > 100 µM | HOP-92 > 100 µM | OVCAR-4 > 100 µM | HT-29 > 100 µM | U-251 > 100 µM | HOP-62 > 100 µM | CCRF-CEM > 100 µM | TK-10 > 100 µM | SR > 100 µM | SN12C > 100 µM | SNB-19 > 100 µM

Oc1ccc2c(c1)c1c(n2CCN2CCOCC2)-c2ccccc2CC1
inactive: OVCAR-8 33.6 µM | MDA-MB-435 > 10 µM | MOLT-4 23.9 µM | 786-0 57.8 µM | HCT-116 37.2 µM | A498 20.2 µM | MCF7 31.6 µM | KM12 17.8 µM | MDA-MB-231 29.9 µM | HT-29 24.2 µM | U-251 25.6 µM | HOP-62 24.7 µM | CCRF-CEM 32.3 µM | TK-10 29.4 µM | SR 24.8 µM | SN12C 41.8 µM | SNB-19 24.8 µM

Cc1cc(Cl)ccc1NC(=O)C1C(=O)N(c2ccc(Cl)cc2C)C(=O)/C1=N\N (configuration not stated)
inactive: OVCAR-8 48.3 µM | MOLT-4 27.9 µM | 786-0 81.3 µM | HCT-116 30.5 µM | A498 28.3 µM | KM12 25.4 µM | HOP-92 34.7 µM | OVCAR-4 83.2 µM | HT-29 53.6 µM | U-251 33 µM | HOP-62 40.7 µM | CCRF-CEM 28.6 µM | TK-10 34.3 µM | SR 26.6 µM | SN12C 36.6 µM | SNB-19 38.9 µM

CC1=C(C(=O)Nc2ccccc2)C(c2ccc(C(C)C)cc2)C(C(=O)Nc2ccccc2)=C(C)N1
inactive: OVCAR-8 22.3 µM | MOLT-4 4.86 µM | 786-0 15 µM | HCT-116 12.7 µM | A498 24 µM | KM12 22.2 µM | HOP-92 14.2 µM | OVCAR-4 28.5 µM | HT-29 15.2 µM | U-251 16 µM | HOP-62 25.3 µM | CCRF-CEM 13.3 µM | TK-10 48.2 µM | SR 10.6 µM | SN12C 13.6 µM | SNB-19 29.4 µM

Nc1cnc2c(c1)c(=O)nc1n2CCS1
inactive: OVCAR-8 > 100 µM | MDA-MB-435 > 100 µM | MOLT-4 > 100 µM | 786-0 > 100 µM | HCT-116 > 100 µM | A498 > 100 µM | MCF7 > 100 µM | KM12 55.1 µM | MDA-MB-231 80 µM | HOP-92 > 100 µM | OVCAR-4 > 100 µM | HT-29 > 100 µM | U-251 > 100 µM | HOP-62 > 100 µM | CCRF-CEM 77.6 µM | TK-10 > 100 µM | SN12C > 100 µM | SNB-19 > 100 µM

Cc1c2n(c(=O)[nH]c1=O)C1OC(CO)C(N=[N+]=[N-])C1O2 (configuration not stated)
inactive: OVCAR-8 > 100 µM | MOLT-4 > 100 µM | 786-0 > 100 µM | HCT-116 > 100 µM | A498 > 100 µM | KM12 > 100 µM | HOP-92 49.5 µM | OVCAR-4 > 100 µM | HT-29 > 100 µM | U-251 > 100 µM | HOP-62 > 100 µM | CCRF-CEM > 100 µM | TK-10 > 100 µM | SR > 100 µM | SN12C > 100 µM | SNB-19 > 100 µM
